From patent publication US5871779A, “Treatment of arthropathies with vanadate compounds or analogues thereof” (Mount Sinai Hospital Corporation, priority 1996, dated 1999)
Values joined by “and” are separate entries in the source; they are usually repeats but may differ in a detail not shown here. Identical values can stand only once.

Key:
SK-OV-3 = test: MTT cytotoxicity assay, SK-OV-3; format: cell-based, human; details: SK-OV-3, 72 hours
Method: (§1) The relative cytotoxicity of various compounds on tumor cell lines was investigated as follows. Cytotoxicity was measured by the MTT microculture tetrazolium colorimetric assay for all cell lines. The relative cytotoxicity of Na3 VO4 and VOSO4 was investigated using the following tumor cell lines: P388(WT) murine leukemia, P388 (ADR) murine leukemia, Lewis murine lung, MCF7 (WT) human breast, […] human lung, K562 human erythroleukemia, A431 human epidermal, LS180 human colon and SK-OV-3 human ovarian. The relative cytotoxicity of doxorubicin, Na3 VO4 and VOSO4 was investigated using the following tumor cell lines: P388(WT) murine leukemia, P388 (ADR) murine leukemia, MCF7(WT) human breast and MCF7 (ADR) human breast. The relative cytotoxicity of BMOV, BEOV and naglivan was investigated using the following tumor cell lines: P388(WT) murine leukemia, P388 (ADR) murine leukemia, Lewis murine lung, H460 human lung, K562 human erythroleukemia, and SK-OV-3 human ovarian.
(§2) The cells were plated (number of cells/well was different from cell line to cell depending on the dividing rate) in a 96-well microculture plate 24 hours prior to the delivery of the vanadium compounds. Serial concentrations of solutions of the test compounds (0.05-100 μM) were delivered to the corresponding wells. A blank column (without cells) and a control column (with cells without vanadium) were left. The cells were incubated for 72 hours continuously. An MTT solution was added to each well after this incubation period and the cells were incubated for 4 more hours for the completion of the dyeing process. The medium was removed find DMSO was added to each well. The absorbance of each well was read with a Titertek Multiskan (310C) spectrophotometer at 570 nm. The percentage of the absorbance of each vanadium concentration relative to the control calculated and the value of the 50% growth inhibition concentration (IC50) was obtained from the % control versus concentration plot. Each assay was repeated three times and the reported IC50 values were the mean of these three runs.

H460 = test: MTT cytotoxicity assay, H460; format: cell-based, human; details: H460, 72 hours
Method: as §1, §2

Lewis lung = test: MTT cytotoxicity assay, Lewis lung; format: cell-based, murine; details: 72 hours
Method: as §1, §2

P388 (WT) = test: MTT cytotoxicity assay, P388 (WT); format: cell-based, murine; details: P388 (WT), 72 hours; read-out: IC50 Value
Summary of the method: (§3)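 72 h continuous exposure to serial dilutions (0.05-100 μM); MTT 4 h; DMSO; A570. IC50 from % control curve, mean of n=3.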

[1] = tested on: proliferating chondrocytes; test: viability / proliferation of proliferating chondrocytes (low cell density); format: cell-based; details: for proliferation of cells, such as chondrocytes: summary statement
Method: In order to compare the effect of orthovanadate on non-proliferating and proliferating chondrocytes, chondrocytes were plated at both high cell density (2×10^6 to 4×10^6 cells/per well on a six well plate) (nonproliferating) and at a lower cell density (5×10^5 to 1×10^6 cells/per well on a six well plate) (proliferating) and then maintained for 48 hours. The cells were then incubated in media (HAMS F12) containing 0-50 μM Orthovanadate for an additional 48 hours. The cells were harvested and the number of viable cells determined.

collagenase = collagenase production by chondrocytes (ELISA); format: cell-based, bovine; details: for production of metalloproteases, such as collagenase: summary statement
Summary of the method: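 Bovine articular chondrocytes, orthovanadate 100 μM pretreatment 2 h, then IL 1 (10 ng/ml) or PMA ([…]). Collagenase by ELISA of medium after 24 h; PLA2 as 3H-AA released over 10 min in 1 mg/ml BSA medium; PGE2 by RIA of supernatant after 6 h in Ham's F12.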

K562 = test: MTT cytotoxicity assay, K562; format: cell-based, human; details: K562, 72 hours
Method: as §1
as §2, with “Serial concentrations of solutions of the test compounds (0.05-100 μM) were delivered to the corresponding wells.” left out

P388 (ADR) = test: MTT cytotoxicity assay, P388 (ADR); format: cell-based, murine; details: P388 (ADR), 72 hours; read-out: IC50 Value
Summary of the method: as §3

[2] = body weights of mice, BMOV solution and beads (Example 19); format: in vivo
Method: On day 6 the mice were divided into 6 groups as follows: group 1, empty control; group 3, tumor control; group 3, injected subcutaneously with 0.25 mg/100μl BMOV, twice a day; group 4, injected IP with 20 mg palla beads containing 5 mg of BMOV; group 5, injected IP with 10 mg of BMOV beads on day 6 and day 9 respectively and; group 6, injected intramuscularly with 10 mg of BMOV beads on day 6 and day 9. On day 16, the mice were sacrificed and tumors were dissected.
The body weights of mice in control and treated groups, and the tumor weights from control and treated mice, are shown in Tables 5 and 6 respectively.

SMILES | IC50 (SK-OV-3) [µM] | IC50 (H460) [µM] | IC50 (Lewis lung) [µM] | IC50 (P388 (WT)) [µM] | proliferation of cells, such as chondrocytes [1] | production of metalloproteases, such as collagenase (collagenase) | IC50 (K562) [µM] | IC50 (P388 (ADR)) [µM] | Body weight, Average ([2]; BMOV solution 0.25 mg × 1) | Body weight ([2]; BMOV solution 0.25 mg × 1, individual mice) | toxicity to cells plated at low cell density ([1]; 0-50 μM, 48 hours) | inhibition of collagenase production (collagenase; 100 μM, IL 1 or PMA stimulated)
Cc1occc(=O)c1[O-].Cc1occc(=O)c1[O-].[O]=[V+2] [BMOV, bis(methylmaltolato) oxovanadium (IV)] | 2.6 | 6.4 | 142 | 31.1 | inhibit | inhibit | > 1000 | 61.2 | 17.87 | 18.8 and 17.8 and 18.4 and 17.3 |  | 
[Na+].[Na+].[Na+].[O]=[V]([O-])([O-])[O-] [orthovanadate, sodium orthovanadate] | 2 | 1.5 | 42.3 | 5.5 | inhibit | inhibit | 100 | 14.8 |  |  | toxic | completely inhibited
